# From patent US20260274832A1, “COMPOUNDS AND THEIR USE IN TREATING CANCER” (ASTRAZENECA AB, priority 2023, published 2026)
# Assays:
# [1] = molecular target: T1, AR (AR-full length) in LNCaP cells (Homo sapiens, UniProt P10275, T878A); assay: LNCaP Androgen Receptor Imaging Assay (immunofluorescence of endogenous nuclear AR); type: cell-based; details: 24 h incubation; for DC50: concentration giving 50% of maximum degradation of AR per curve fit, single experiment or average of two or more; for Dmax: LNCaP, maximum degradation observed, normalized as % of positive control (prior art AR PROTAC at 3 μM)
# T1 construct: the prostate cancer cell line LNCaP (expressing AR-full length); endogenous in cells; host or cells: LNCaP
# T1 sequence (P10275 whole entry T878A): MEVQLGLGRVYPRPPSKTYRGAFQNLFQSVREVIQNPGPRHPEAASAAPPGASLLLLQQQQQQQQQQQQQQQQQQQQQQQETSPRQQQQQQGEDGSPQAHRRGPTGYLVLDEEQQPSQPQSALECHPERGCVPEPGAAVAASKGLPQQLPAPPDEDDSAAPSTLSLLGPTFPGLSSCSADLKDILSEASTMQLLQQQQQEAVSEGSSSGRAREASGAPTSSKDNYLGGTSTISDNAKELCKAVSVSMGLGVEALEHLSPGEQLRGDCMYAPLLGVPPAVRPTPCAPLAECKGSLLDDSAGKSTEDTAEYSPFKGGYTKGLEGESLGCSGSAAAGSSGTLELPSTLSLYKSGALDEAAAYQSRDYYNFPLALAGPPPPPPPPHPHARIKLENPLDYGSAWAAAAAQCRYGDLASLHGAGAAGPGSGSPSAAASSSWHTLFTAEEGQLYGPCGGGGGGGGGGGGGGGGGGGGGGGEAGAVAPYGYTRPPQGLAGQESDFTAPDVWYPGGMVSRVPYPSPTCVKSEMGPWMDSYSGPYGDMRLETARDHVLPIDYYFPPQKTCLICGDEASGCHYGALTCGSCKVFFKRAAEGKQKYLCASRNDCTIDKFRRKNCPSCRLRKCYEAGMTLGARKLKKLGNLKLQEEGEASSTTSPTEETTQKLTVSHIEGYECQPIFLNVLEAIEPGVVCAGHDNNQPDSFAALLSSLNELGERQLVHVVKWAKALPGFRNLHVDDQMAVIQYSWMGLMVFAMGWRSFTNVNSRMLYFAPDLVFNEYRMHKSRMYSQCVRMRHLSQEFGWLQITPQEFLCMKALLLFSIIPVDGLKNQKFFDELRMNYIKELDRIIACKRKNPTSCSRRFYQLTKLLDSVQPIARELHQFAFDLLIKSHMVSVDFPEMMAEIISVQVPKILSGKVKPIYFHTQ
# T1 sequence (Q96SW2 whole entry partner): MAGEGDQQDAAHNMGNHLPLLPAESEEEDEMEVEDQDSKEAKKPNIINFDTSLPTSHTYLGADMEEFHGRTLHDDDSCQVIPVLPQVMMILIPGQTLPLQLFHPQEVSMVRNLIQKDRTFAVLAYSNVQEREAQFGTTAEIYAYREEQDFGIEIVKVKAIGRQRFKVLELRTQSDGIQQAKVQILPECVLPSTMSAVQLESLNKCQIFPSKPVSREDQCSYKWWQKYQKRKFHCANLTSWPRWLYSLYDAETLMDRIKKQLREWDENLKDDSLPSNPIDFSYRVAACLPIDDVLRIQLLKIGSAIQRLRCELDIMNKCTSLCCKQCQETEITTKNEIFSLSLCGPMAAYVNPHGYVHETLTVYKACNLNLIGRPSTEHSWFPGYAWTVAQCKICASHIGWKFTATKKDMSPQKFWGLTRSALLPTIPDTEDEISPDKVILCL
# Summary of the method: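 Endogenous nuclear AR level was imaged by immunofluorescence after 24 h compound exposure (12-point dose response, 0.3% DMSO, 37° C./5% CO2) in LNCaP cells. Data were expressed as % of a 3 μM prior-art AR PROTAC control and fitted (bell fit where a hook appeared) to give DC50 and maximum degradation Dmax.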
# [2] = molecular target: T2, AR (L702H) in LNCaP cells (Homo sapiens, UniProt P10275, L702H/T878A); assay: LNCaP Androgen Receptor L702H Imaging Assay (LNCaP cells engineered by CRISPR/Cas9); type: cell-based; details: LNCaP cells with AR L702H mutation, 24 h incubation; for DC50: concentration giving 50% of maximum degradation of AR (L702H) per curve fit; for Dmax: LNCaP, maximum degradation observed, normalized as % of positive control
# T2 construct: engineered to introduce the mutation L702H into the AR gene using CRISPR/Cas9; endogenous in cells; host or cells: LNCaP cells edited by CRISPR/Cas9 at the AR gene
# T2 sequence (P10275 whole entry L702H/T878A): as the sequence (P10275 whole entry T878A) above, with L702H counted along it
# T2 sequence (Q96SW2 whole entry partner): as the sequence (Q96SW2 whole entry partner) above
# Summary of the method: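 AR (L702H) degradation, expressed as DC50 and Dmax from curve fits normalized to a positive degrader control, was measured by high-content imaging of anti-AR immunofluorescence. The engineered LNCaP line was dosed over 12 concentrations for 24 h, 0.3% DMSO final, before PFA fixation.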
Structure (SMILES),DC50 [1] [nM],Dmax [1] [%],DC50 [2] [nM],Dmax [2] [%]
"N#Cc1c[nH]c2c(N3CCC(NC(=O)c4ccc(N5CCC(CN6CCC(n7ccc8cc(N9CCC(=O)NC9=O)ccc87)CC6)CC5)cc4F)CC3)ccc(Cl)c12 [Example 153, N-[1-(4-Chloro-3-cyano-1H-indol-7-yl)piperidin-4-yl]-4-[4-({4-[5-(2,4-dioxo-1,3-diazinan-1-yl)-1H-indol-1-yl]piperidin-1-yl}methyl)piperidin-1-yl]-2-fluorobenzamide]",2,109,3,114
N#Cc1c[nH]c2c(N3CCC(NC(=O)c4ccc(N5CCC(CN6CCN(c7ccc(C(=O)NC8CCC(=O)NC8=O)c(F)c7)CC6)CC5)cc4F)CC3)ccc(Cl)c12 (centres unmarked) [Example 154],4,81,9,79
"N#Cc1c[nH]c2c(N3CCC(NC(=O)c4ccc(N5CCC(CN6Cc7cc8c(cc7C6)C(=O)N(C6CCC(=O)NC6=O)C8=O)CC5)cc4F)CC3)ccc(Cl)c12 (centres unmarked) [Example 155, N-[1-(4-Chloro-3-cyano-1H-indol-7-yl)piperidin-4-yl]-4-(4-{[6-(2,6-dioxopiperidin-3-yl)-5,7-dioxo-3,5,6,7-tetrahydropyrrolo[3,4-f]isoindol-2(1H)-yl]methyl}piperidin-1-yl)-2-fluorobenzamide]",4,80,17,82
"Cn1c(C2CCN(CC3CCN(c4ccc(C(=O)NC5CCN(c6ccc(Cl)c7c(C#N)c[nH]c67)CC5)c(F)c4)CC3)CC2)cc2cc(F)c(N3CCC(=O)NC3=O)cc21 [Example 156, N-[1-(4-Chloro-3-cyano-1H-indol-7-yl)piperidin-4-yl]-4-[4-({4-[6-(2,4-dioxo-1,3-diazinan-1-yl)-5-fluoro-1-methyl-1H-indol-2-yl]piperidin-1-yl}methyl)piperidin-1-yl]-2-fluorobenzamide]",5,104,10,105
"Cn1c(=O)n(C2CCC(=O)NC2=O)c2cccc(N3CCN(CC4CCN(c5ccc(C(=O)NC6CCN(c7ccc(Cl)c8c(C#N)c[nH]c78)CC6)c(F)c5)CC4)CC3)c21 (centres unmarked) [Example 157, N-[1-(4-Chloro-3-cyano-1H-indol-7-yl)piperidin-4-yl]-4-[4-({4-[1-(2,6-dioxopiperidin-3-yl)-3-methyl-2-oxo-2,3-dihydro-1H-benzimidazol-4-yl]piperazin-1-yl}methyl)piperidin-1-yl]-2-fluorobenzamide]",3,97,4,96
"Cn1c(C2CCN(CC3CCN(c4ccc(C(=O)NC5CCN(c6ccc(Cl)c7c(C#N)c[nH]c67)CC5)c(F)c4)CC3)CC2)cc2ccc(N3CCC(=O)NC3=O)cc21 [Example 158, N-[1-(4-Chloro-3-cyano-1H-indol-7-yl)piperidin-4-yl]-4-[4-({4-[6-(2,4-dioxo-1,3-diazinan-1-yl)-1-methyl-1H-indol-2-yl]piperidin-1-yl}methyl)piperidin-1-yl]-2-fluorobenzamide]",1,104,7,107
"N#Cc1c[nH]c2c(N3CCC(NC(=O)c4ccc(N5CCC(CN6CCN(c7ccc8c(c7)CN(C7CCC(=O)NC7=O)C8=O)CC6)CC5)cc4F)CC3)ccc(Cl)c12 (centres unmarked) [Example 159, N-[1-(4-Chloro-3-cyano-1H-indol-7-yl)piperidin-4-yl]-4-[4-({4-[2-(2,6-dioxopiperidin-3-yl)-1-oxo-2,3-dihydro-1H-isoindol-5-yl]piperazin-1-yl}methyl)piperidin-1-yl]-2-fluorobenzamide]",2,101,3,106
"N#Cc1c[nH]c2c(N3CCC(NC(=O)c4ccc(N5CCC(CN6CCC(n7ccc8c(N9CCC(=O)NC9=O)cccc87)CC6)CC5)cc4F)CC3)ccc(Cl)c12 [Example 160, N-[1-(4-Chloro-3-cyano-1H-indol-7-yl)piperidin-4-yl]-4-[4-({4-[4-(2,4-dioxo-1,3-diazinan-1-yl)-1H-indol-1-yl]piperidin-1-yl}methyl)piperidin-1-yl]-2-fluorobenzamide]",1,104,4,105
"N#Cc1c[nH]c2c(N3CCC(NC(=O)c4ccc(N5CCC(CN6CCN(c7cc8c(cc7F)C(=O)N(C7CCC(=O)NC7=O)C8=O)CC6)CC5)cc4F)CC3)ccc(Cl)c12 (centres unmarked) [Example 161, N-[1-(4-Chloro-3-cyano-1H-indol-7-yl)piperidin-4-yl]-4-[4-({4-[2-(2,6-dioxopiperidin-3-yl)-6-fluoro-1,3-dioxo-2,3-dihydro-1H-isoindol-5-yl]piperazin-1-yl}methyl)piperidin-1-yl]-2-fluorobenzamide]",7,95,20,98
"N#Cc1cc(N2CCC(CN3CCC(n4ccc5c(N6CCC(=O)NC6=O)cccc54)CC3)CC2)ccc1C(=O)NC1CCN(c2ccc(Cl)c3c(C#N)c[nH]c23)CC1 [Example 162, N-[1-(4-Chloro-3-cyano-1H-indol-7-yl)piperidin-4-yl]-2-cyano-4-[4-({4-[4-(2,4-dioxo-1,3-diazinan-1-yl)-1H-indol-1-yl]piperidin-1-yl}methyl)piperidin-1-yl]benzamide]",1,106,1,110
"Cc1cc(N2CCC(CN3CCC(n4ccc5c(N6CCC(=O)NC6=O)cccc54)CC3)CC2)cc(F)c1C(=O)NC1CCN(c2ccc(Cl)c3c(C#N)c[nH]c23)CC1 [Example 163, N-[1-(4-Chloro-3-cyano-1H-indol-7-yl)piperidin-4-yl]-4-[4-({4-[4-(2,4-dioxo-1,3-diazinan-1-yl)-1H-indol-1-yl]piperidin-1-yl}methyl)piperidin-1-yl]-2-fluoro-6-methylbenzamide]",1,107,2,113
"Cc1cc(C(=O)NC2CCN(c3ccc(Cl)c4c(C#N)c[nH]c34)CC2)ccc1N1CCC(CN2CCC(n3ccc4c(N5CCC(=O)NC5=O)cccc43)CC2)CC1 [Example 164, N-[1-(4-Chloro-3-cyano-1H-indol-7-yl)piperidin-4-yl]-4-[4-({4-[4-(2,4-dioxo-1,3-diazinan-1-yl)-1H-indol-1-yl]piperidin-1-yl}methyl)piperidin-1-yl]-3-methylbenzamide]",2,108,2,114
"N#Cc1cc(C(=O)NC2CCN(c3ccc(Cl)c4c(C#N)c[nH]c34)CC2)ccc1N1CCC(CN2CCC(n3ccc4c(N5CCC(=O)NC5=O)cccc43)CC2)CC1 [Example 165, N-[1-(4-Chloro-3-cyano-1H-indol-7-yl)piperidin-4-yl]-3-cyano-4-[4-({4-[4-(2,4-dioxo-1,3-diazinan-1-yl)-1H-indol-1-yl]piperidin-1-yl}methyl)piperidin-1-yl]benzamide]",2,106,2,115
"N#Cc1c[nH]c2c(N3CCC(NC(=O)c4ccc(N5CCC(N6CCN(c7cc8c(cc7F)C(=O)N(C7CCC(=O)NC7=O)C8=O)CC6)CC5)cn4)CC3)ccc(Cl)c12 (centres unmarked) [Example 166, N-[1-(4-Chloro-3-cyano-1H-indol-7-yl)piperidin-4-yl]-5-(4-{4-[2-(2,6-dioxopiperidin-3-yl)-6-fluoro-1,3-dioxo-2,3-dihydro-1H-isoindol-5-yl]piperazin-1-yl}piperidin-1-yl)pyridine-2-carboxamide]",4,85,37,92
"N#Cc1c[nH]c2c(N3CCC(NC(=O)c4ccc(N5CCC(CN6CCC(n7ccc8c(N9CCC(=O)NC9=O)cccc87)CC6)CC5)cn4)CC3)ccc(Cl)c12 [Example 167, N-[1-(4-Chloro-3-cyano-1H-indol-7-yl)piperidin-4-yl]-5-[4-({4-[4-(2,4-dioxo-1,3-diazinan-1-yl)-1H-indol-1-yl]piperidin-1-yl}methyl)piperidin-1-yl]pyridine-2-carboxamide]",1,101,2,100
"N#Cc1c[nH]c2c(N3CCC(NC(=O)c4ccc(N5CCC(CN6CCN(c7ccc8c(c7)CN(C7CCC(=O)NC7=O)C8=O)CC6)CC5)cn4)CC3)ccc(Cl)c12 (centres unmarked) [Example 168, N-[1-(4-Chloro-3-cyano-1H-indol-7-yl)piperidin-4-yl]-5-[4-({4-[2-(2,6-dioxopiperidin-3-yl)-1-oxo-2,3-dihydro-1H-isoindol-5-yl]piperazin-1-yl}methyl)piperidin-1-yl]pyridine-2-carboxamide]",1,87,2,96
"N#Cc1c[nH]c2c(N3CCC(NC(=O)c4ccc(N5CCC(CN6CCN(c7cc8c(cc7F)C(=O)N(C7CCC(=O)NC7=O)C8=O)CC6)CC5)cn4)CC3)ccc(Cl)c12 (centres unmarked) [Example 169, N-[1-(4-Chloro-3-cyano-1H-indol-7-yl)piperidin-4-yl]-5-[4-({4-[2-(2,6-dioxopiperidin-3-yl)-6-fluoro-1,3-dioxo-2,3-dihydro-1H-isoindol-5-yl]piperazin-1-yl}methyl)piperidin-1-yl]pyridine-2-carboxamide]",5,86,23,94
